Active and inactive are the calls of the source. The calls are words filed in the database; no cut-off is given here.
Legend:
[1] = Average plasma concentration in CB-17/SCID mouse at 25 mg/kg administered once a day for 4 days by LC-MS/MS analysis; assay type: ADME, organism-based; conditions: in vivo, 96 h, time 4 day
[2] = system: Mus musculus; experiment: In vivo inhibition of ALK signaling in SCID Beige mouse xenografted with ALK positive human KARPAS-299 cells assessed as reduction in phosphorylated STAT3 level at 10 to 50 mg/kg, po administered as single dose and measured at 6 to 24 hrs by immunoblot analysis; assay type: functional, organism-based; conditions: dose 10-50 mg/kg, time 6-24 hrs
[3] = biological target: Ephrin type-B receptor 3 (Homo sapiens) (UniProt P54753); experiment: Inhibition of human EPHB3 at 1 uM using poly (Glu, Tyr)4:1 as substrate in presence of [gamma33P]-ATP by HotSpot assay relative to control
[4] = biological target: Receptor-interacting serine/threonine-protein kinase 2 (Homo sapiens) (UniProt O43353); experiment: Inhibition of human RIPK2 at 1 uM using MBP as substrate in presence of [gamma33P]-ATP by HotSpot assay relative to control
[5] = biological target: Testis-specific serine/threonine-protein kinase 2 (Homo sapiens, UniProt Q96PF2); experiment: Inhibition of human TSSK2 using KKKVSRSGLYRSPSMPENLNRPR as substrate in presence of [gamma33P]-ATP by HotSpot assay
[6] = system: KARPAS-299; experiment: Antitumor activity against ALK positive human KARPAS-299 cells xenografted in SCID beige mouse assessed as tumor regression at 50 mg/kg, po administered once daily for 14 days and measured after 13 days relative to control; assay type: functional; conditions: time 27 day
[7] = biological target: Serine/threonine-protein kinase Nek9 (Homo sapiens, UniProt Q8TD19); experiment: Inhibition of human NEK9 using MBP as substrate in presence of [gamma33P]-ATP by HotSpot assay
[8] = system: EML4-ALK (Homo sapiens), Q9UM73+Q9HC35 [G1269A]; conditions: BaF3, dose 500.0 nmol/L, time 3-5 weeks
[9] = biological target: Insulin receptor (Homo sapiens, UniProt P06213); experiment: Inhibition of human INSR using poly (Glu, Tyr)4:1 as substrate in presence of [gamma33P]-ATP by HotSpot assay
[10] = biological target: Tyrosine-protein kinase ZAP-70 (Homo sapiens) (UniProt P43403); experiment: Inhibition of human ZAP70 at 1 uM using MBP as substrate in presence of [gamma33P]-ATP by HotSpot assay relative to control
[11] = system: EML4-ALK (Homo sapiens), Q9UM73+Q9HC35 [L1152R]; conditions: BaF3, dose 500.0 nmol/L, time 3-5 weeks
[12] = biological target: LIM domain kinase 1 (Homo sapiens) (UniProt P53667); experiment: Inhibition of human LIMK1 at 1 uM using cofilin as substrate in presence of [gamma33P]-ATP by HotSpot assay relative to control
[13] = biological target: Death-associated protein kinase 2 (Homo sapiens) (UniProt Q9UIK4); experiment: Inhibition of human DAPK2 at 1 uM using KKLNRTLSFAEPG as substrate in presence of [gamma33P]-ATP by HotSpot assay relative to control
[14] = biological target: Vascular endothelial growth factor receptor 2 (Homo sapiens, UniProt P35968); experiment: Inhibition of human VEGFR2 using poly (Glu, Tyr)4:1 as substrate in presence of [gamma33P]-ATP by HotSpot assay
[15] = biological target: Serine/threonine-protein kinase Nek4 (Homo sapiens) (UniProt P51957); experiment: Inhibition of human NEK4 at 1 uM using MBP as substrate in presence of [gamma33P]-ATP by HotSpot assay relative to control
[16] = biological target: Calcium/calmodulin-dependent protein kinase type 1 (Homo sapiens) (UniProt Q14012); experiment: Inhibition of human CAMK1a at 1 uM using KKALRRQETVDAL as substrate in presence of [gamma33P]-ATP by HotSpot assay relative to control
[17] = biological target: Mitogen-activated protein kinase kinase kinase 20 (Homo sapiens) (UniProt Q9NYL2); experiment: Inhibition of human ZAK at 1 uM using MBP as substrate in presence of [gamma33P]-ATP by HotSpot assay relative to control
[18] = biological target: Ribosomal protein S6 kinase beta-2 (Homo sapiens) (UniProt Q9UBS0); experiment: Inhibition of human RPS6KB2 at 1 uM using KKRNRTLTK as substrate in presence of [gamma33P]-ATP by HotSpot assay relative to control
[19] = system: EML4-ALK (Homo sapiens), Q9UM73+Q9HC35 [L1196M]; conditions: BaF3, dose 500.0 nmol/L, time 3-5 weeks
[20] = biological target: Tyrosine-protein kinase CSK (Homo sapiens, UniProt P41240); experiment: Inhibition of human CSK at 1 uM using poly (Glu, Tyr)4:1 as substrate in presence of [gamma33P]-ATP by HotSpot assay relative to control
[21] = system: SU-DHL-1; conditions: time 72 hrs
[22] = biological target: NT-3 growth factor receptor (Homo sapiens) (UniProt Q16288); experiment: Inhibition of human NTRK3 at 1 uM using poly (Glu, Tyr)4:1 as substrate in presence of [gamma33P]-ATP by HotSpot assay relative to control
[23] = biological target: Ephrin type-A receptor 7 (Homo sapiens, UniProt Q15375); experiment: Inhibition of human EPHA7 using poly (Glu, Tyr)4:1 as substrate in presence of [gamma33P]-ATP by HotSpot assay
[24] = biological target: Protein kinase C zeta type (Homo sapiens) (UniProt Q05513); experiment: Inhibition of human PRKCZ at 1 uM using ERMRPRKRQGSVRRRV as substrate in presence of [gamma33P]-ATP by HotSpot assay relative to control
[25] = biological target: Vascular endothelial growth factor receptor 1 (Homo sapiens) (UniProt P17948); experiment: Inhibition of human FLT1 at 1 uM using poly (Glu, Tyr)4:1 as substrate in presence of [gamma33P]-ATP by HotSpot assay relative to control
[26] = biological target: Ephrin type-A receptor 5 (Homo sapiens) (UniProt P54756); experiment: Inhibition of human EPHA5 at 1 uM using poly (Glu, Tyr)4:1 as substrate in presence of [gamma33P]-ATP by HotSpot assay relative to control
[27] = biological target: Serine/threonine-protein kinase PAK 6 (Homo sapiens) (UniProt Q9NQU5); experiment: Inhibition of human PAK6 at 1 uM using RRRLSFAEPG as substrate in presence of [gamma33P]-ATP by HotSpot assay relative to control
[28] = in vitro; conditions: mouse, BaF3 cells
[29] = biological target: Leucine-rich repeat serine/threonine-protein kinase 2 (Homo sapiens, UniProt Q5S007); experiment: Inhibition of human LRRK2 using RLGRDKYKTLRQIRQ as substrate in presence of [gamma33P]-ATP by HotSpot assay

SMILES: COc1cc(N2CCC(N3CCN(C)CC3)CC2)ccc1Nc1ncc(Cl)c(Nc2ccccc2P(C)(C)=O)n1 [BRIGATINIB]
- Cave [1]: 844 nM
- Activity [2]: Active
- inhibition [3]: < 90%
- inhibition [4]: < 90%
- IC50 [5]: 138 nM
- Activity [6]: ~100%
- IC50 [7]: > 1000 nM
- inhibition [8]: Active
- IC50 [9]: 160 nM
- inhibition [10]: < 90%
- inhibition [11]: Active
- inhibition [12]: < 90%
- inhibition [13]: < 90%
- IC50 [14]: 816 nM
- inhibition [15]: < 90%
- inhibition [16]: < 90%
- inhibition [17]: < 90%
- inhibition [18]: < 90%
- inhibition [19]: Active
- inhibition [20]: < 90%
- GI50 [21]: 9 nM
- inhibition [22]: < 90%
- IC50 [23]: > 1000 nM
- inhibition [24]: < 90%
- inhibition [25]: < 90%
- inhibition [26]: < 90%
- inhibition [27]: < 90%
- IC50 at 72 h [28]: 3210 nM
- IC50 [29]: 51 nM

— ChEMBL document CHEMBL5696443 (Clin Cancer Res, 2016)
